Several values for one entry are separate records, joined by “and”; a condition that tells them apart may be missing. Equal values may be shown once. Read-outs that look alike come from different tables or passages of the source.
Legend:
KRAS G12V = KRAS G12V (Homo sapiens (Human), UniProt P01116+P62937, G12V); experiment: Ras-Raf (BRAF RBD) disruption / FRET / MOA assay, KRAS G12V; type: biochemical; conditions: read-out: IC50* KRAS G12V FRET data
Summary of the method: (§1)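 Compounds, top final concentration 30 μM in 10-point 3-fold series, incubated 3 hours at 25° C with nucleotide-loaded Ras, cyclophilin A and BRAF RBD.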

K-Ras G12C = K-Ras G12C (Homo sapiens (Human), UniProt P01116+P62937, G12C); experiment: Ras-Raf (BRAF RBD) disruption / FRET / MOA assay, KRAS G12C; type: biochemical
Summary of the method: as §1

KRAS G12D = KRAS G12D (Homo sapiens (Human), UniProt P01116+P62937, G12D); experiment: Ras-Raf (BRAF RBD) disruption / FRET / MOA assay, KRAS G12D; type: biochemical; conditions: Ras-Raf disruption/FRET/MOA assay; class symbols; read-out: KRAS G12D FRET data IC50
Summary of the method: as §1

NRAS G12C = NRAS G12C (Homo sapiens (Human), UniProt P01111+P62937, G12C); experiment: Ras-Raf (BRAF RBD) disruption / FRET / MOA assay, NRAS G12C; type: biochemical; conditions: read-out: IC50* NRAS G12C FRET data
Summary of the method: as §1

NCI-H358 (K-Ras G12C) = experiment: CellTiter-Glo cell viability assay, NCI-H358; type: cell-based, human; conditions: NCI-H358, 5-day treatment
Summary of the method: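 Compounds dispensed directly onto seeded K-Ras mutant cells; plates read on day 5 after ~30 min equilibration to room temperature, by CellTiter-Glo luminescence. Signal normalized as (sample/mean DMSO)×100, then fitted to a four-parameter logistic curve.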

KRAS G12S = KRAS G12S (Homo sapiens (Human), UniProt P01116+P62937, G12S); experiment: Ras-Raf (BRAF RBD) disruption / FRET / MOA assay, KRAS G12S; type: biochemical; conditions: Ras-Raf disruption/FRET/MOA assay; class symbols; read-out: KRAS G12S FRET data IC50
Summary of the method: as §1

[1] = tested on: NCI-H358 cells (K-Ras G12C); experiment: Potency assay: pERK in NCI-H358 cells; type: cell-based, human; conditions: Homo sapiens
Summary of the method: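 pERK decrease read by AlphaLISA SureFire p-ERK1/2 or In-Cell Western after 4 h compound exposure at 37 °C, 5% CO2.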

KRAS WT = KRAS WT (Homo sapiens (Human), UniProt P01116+P62937); experiment: Ras-Raf (BRAF RBD) disruption / FRET / MOA assay, KRAS WT; type: biochemical; conditions: read-out: IC50* KRAS WT FRET data
Summary of the method: as §1

KRAS G13D = KRAS G13D (Homo sapiens (Human), UniProt P01116+P62937, G13D); experiment: Ras-Raf (BRAF RBD) disruption / FRET / MOA assay, KRAS G13D; type: biochemical; conditions: read-out: IC50* KRAS G13D FRET data
Summary of the method: as §1

K-Ras G13C = K-Ras G13C (Homo sapiens (Human), UniProt P01116+P62937, G13C); experiment: Ras-Raf (BRAF RBD) disruption / FRET / MOA assay, KRAS G13C; type: biochemical
Summary of the method: as §1

[2] = KRAS G12C, Ras-Raf disruption/FRET/MOA assay, read-out: IC50* KRAS G12C FRET data
[3] = Homo sapiens, NCI-H358, 120 h, class symbols, read-out: Additional H358 Cell Viability assay data (K-Ras G12C, IC50)
[4] = NCI-H358, H358 KRAS G12C, read-out: pERK EC50
[5] = KRAS G13C, Ras-Raf disruption/FRET/MOA assay, read-out: IC50* KRAS G13C FRET data

Sequence of K-Ras G12C (P01116-2 other isoform, or with tags, fused parts or gaps G12C): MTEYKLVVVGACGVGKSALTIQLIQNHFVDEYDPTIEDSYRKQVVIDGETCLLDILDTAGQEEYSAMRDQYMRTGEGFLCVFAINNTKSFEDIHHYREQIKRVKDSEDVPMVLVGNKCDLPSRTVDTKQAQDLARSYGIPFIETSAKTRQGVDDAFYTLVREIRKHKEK
Sequence of K-Ras G12C (P62937 whole entry): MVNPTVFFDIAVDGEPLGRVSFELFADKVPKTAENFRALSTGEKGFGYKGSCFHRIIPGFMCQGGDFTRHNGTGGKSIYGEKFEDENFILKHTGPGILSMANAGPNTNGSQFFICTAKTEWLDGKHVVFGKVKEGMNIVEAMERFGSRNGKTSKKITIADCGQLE
Sequence of NRAS G12C (P01111 whole entry G12C): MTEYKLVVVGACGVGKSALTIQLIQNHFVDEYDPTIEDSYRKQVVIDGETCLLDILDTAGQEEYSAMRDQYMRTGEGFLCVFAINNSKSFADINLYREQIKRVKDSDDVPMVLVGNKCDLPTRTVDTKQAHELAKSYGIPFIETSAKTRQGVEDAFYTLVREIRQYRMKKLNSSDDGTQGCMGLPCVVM
Sequence of NRAS G12C (P62937 whole entry): as the sequence (P62937 whole entry) above
Sequence of K-Ras G13C (P01116-2 other isoform, or with tags, fused parts or gaps G13C): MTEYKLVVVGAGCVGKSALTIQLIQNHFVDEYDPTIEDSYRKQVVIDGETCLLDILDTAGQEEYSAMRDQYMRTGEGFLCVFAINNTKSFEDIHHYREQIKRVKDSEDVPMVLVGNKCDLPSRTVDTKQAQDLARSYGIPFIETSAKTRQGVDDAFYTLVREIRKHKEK
Sequence of K-Ras G13C (P62937 whole entry): as the sequence (P62937 whole entry) above
Sequence of KRAS G12S (P01116-2 other isoform, or with tags, fused parts or gaps G12S): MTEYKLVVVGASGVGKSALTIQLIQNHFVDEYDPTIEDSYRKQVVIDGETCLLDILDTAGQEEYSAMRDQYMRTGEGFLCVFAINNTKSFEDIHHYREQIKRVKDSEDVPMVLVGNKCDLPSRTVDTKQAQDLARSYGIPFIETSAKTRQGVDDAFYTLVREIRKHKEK
Sequence of KRAS G12S (P62937 whole entry): as the sequence (P62937 whole entry) above
Sequence of KRAS WT (P01116-2 other isoform, or with tags, fused parts or gaps): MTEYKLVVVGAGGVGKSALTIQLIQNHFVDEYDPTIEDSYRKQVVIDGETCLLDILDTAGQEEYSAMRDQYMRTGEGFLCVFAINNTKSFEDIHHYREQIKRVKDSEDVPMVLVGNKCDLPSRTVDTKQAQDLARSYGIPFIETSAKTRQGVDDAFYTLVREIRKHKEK
Sequence of KRAS WT (P62937 whole entry): as the sequence (P62937 whole entry) above
Sequence of KRAS G12V (P01116-2 other isoform, or with tags, fused parts or gaps G12V): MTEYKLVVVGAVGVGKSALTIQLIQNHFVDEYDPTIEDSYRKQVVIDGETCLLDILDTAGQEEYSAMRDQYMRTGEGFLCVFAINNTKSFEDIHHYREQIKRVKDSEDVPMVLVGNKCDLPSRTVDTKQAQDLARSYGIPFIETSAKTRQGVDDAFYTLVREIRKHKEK
Sequence of KRAS G12V (P62937 whole entry): as the sequence (P62937 whole entry) above
Sequence of KRAS G13D (P01116-2 other isoform, or with tags, fused parts or gaps G13D): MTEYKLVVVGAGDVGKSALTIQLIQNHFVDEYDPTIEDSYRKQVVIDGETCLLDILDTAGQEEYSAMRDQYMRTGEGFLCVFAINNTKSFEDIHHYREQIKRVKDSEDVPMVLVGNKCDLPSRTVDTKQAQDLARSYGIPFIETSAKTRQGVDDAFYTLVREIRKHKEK
Sequence of KRAS G13D (P62937 whole entry): as the sequence (P62937 whole entry) above
Sequence of KRAS G12D (P01116-2 other isoform, or with tags, fused parts or gaps G12D): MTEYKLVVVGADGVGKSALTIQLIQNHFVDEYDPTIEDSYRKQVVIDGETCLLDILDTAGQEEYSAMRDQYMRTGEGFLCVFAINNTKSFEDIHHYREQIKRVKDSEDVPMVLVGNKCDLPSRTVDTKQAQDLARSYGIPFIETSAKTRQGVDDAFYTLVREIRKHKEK
Sequence of KRAS G12D (P62937 whole entry): as the sequence (P62937 whole entry) above

Compound | IC50 (KRAS G12V) | IC50 (K-Ras G12C; [2]) | IC50 (KRAS G12D) | IC50 (NRAS G12C) | IC50 (NCI-H358 (K-Ras G12C); [3]) [nM] | IC50 (KRAS G12S) | EC50 [1, 4] [nM] | IC50 (KRAS WT) | IC50 (KRAS G13D) | IC50 (K-Ras G13C; [5]) | IC50 (NCI-H358 (K-Ras G12C); class symbols, read-out: Additional H358 Cell Viability assay data (K-Ras G12C, IC50)) [nM] | IC50 (K-Ras G12C; with Cyclophilin A, BRAF RBD, read-out: FRET (K-Ras G12C) IC50) [nM] | IC50 (NCI-H358 (K-Ras G12C); Homo sapiens, NCI-H358, 120 h, read-out: H358 Cell Viability (K-Ras G12C) IC50) [nM] | EC50 ([1]; NCI-H358 cells, 4 hours, read-out: H358 pERK (K-Ras G12C) EC50) [nM] | IC50 (K-Ras G13C; with Cyclophilin A, BRAF RBD, read-out: FRET (K-Ras G13C) IC50) [nM]
C=CC(=O)N1CC[C@H](C(=O)N(C)[C@@H](C(=O)N[C@H]2Cc3cc(O)cc(c3)-c3ccc4c(c3)c(c(-c3cccc(CN(C)C)c3)n4CC)CC(C)(C)COC(=O)[C@@H]3CCCN(N3)C2=O)C(C)C)C1 [Example A106] | > 10000 nM | 1000 to 10000 nM | > 10000 nM | 1000 to 10000 nM | 100 to 1000 | > 10000 nM | < 5000 | > 10000 nM | > 10000 nM | > 10000 nM |  |  |  |  | 
CCn1c(-c2cccnc2[C@H](C)OC)c2c3cc(ccc31)-c1cccc(c1)C[C@H](NC(=O)[C@H](C(C)C)N1CCC3(CN(C(=O)C#CC(C)(C)N(C)C)C3)C1=O)C(=O)N1CCC[C@H](N1)C(=O)OCC(C)(C)C2 (atropisomer, axis not shown) [Example A324] | 1000 to 10000 nM | < 10 nM | > 10000 nM | < 10 nM | < 10 | 1000 to 10000 nM | < 5000 | 1000 to 10000 nM | > 10000 nM | 100 to 1000 nM |  |  |  |  | 
CCn1c(-c2cncnc2)c2c3cc(ccc31)-c1cc(O)cc(c1)C[C@H](NC(=O)[C@H](C(C)C)N(C)C(=O)[C@H]1CCN(C(=O)C#CCN3CCOCC3)C1)C(=O)N1CCC[C@H](N1)C(=O)OCC(C)(C)C2 [Example A176] | 1000 to 10000 nM | < 10 nM | > 10000 nM | < 10 nM | 10 to 100 | 1000 to 10000 nM | < 5000 | > 10000 nM | > 10000 nM | 1000 to 10000 nM |  |  |  |  | 
CCn1c(-c2cncnc2[C@H](C)OC)c2c3cc(ccc31)-c1cc(O)cc(c1)C[C@H](NC(=O)[C@H](C(C)C)N(C)C(=O)[C@H]1CCN(C(=O)C#CCN3CCOCC3)C1)C(=O)N1CCC[C@H](N1)C(=O)OCC(C)(C)C2 (atropisomer, axis not shown) [Example A182] | 100 to 1000 nM and 1000 to 10000 nM | 10 to 100 nM and < 10 nM | 1000 to 10000 nM and > 10000 nM | 10 to 100 nM and < 10 nM | 10 to 100 | 100 to 1000 nM and 1000 to 10000 nM | < 5000 | 100 to 1000 nM and 1000 to 10000 nM | 100 to 1000 nM and 1000 to 10000 nM | 10 to 100 nM and 1000 to 10000 nM | < 10 |  |  |  | 
C=CC(=O)N1C[C@H](C(=O)N(C)[C@H](C(=O)N[C@H]2Cc3cccc(c3)-c3ccc4c(c3)c(c(-c3cccnc3[C@H](C)OC)n4CC)CC(C)(C)COC(=O)[C@@H]3CCCN(N3)C2=O)C(C)C)[C@H](C(F)(F)F)C1 (atropisomer, axis not shown) [Example A400] | > 10000 nM | 10 to 100 nM | > 10000 nM | 10 to 100 nM | 10 to 100 | > 10000 nM | < 5000 | > 10000 nM | > 10000 nM | 1000 to 10000 nM |  |  |  |  | 
CCn1c(-c2cncnc2)c2c3cc(ccc31)-c1cccc(c1)[C@@H](OC)[C@H](NC(=O)[C@H](C(C)C)N(C)C(=O)[C@H]1CCN(C(=O)C#CCN3CCOCC3)C1)C(=O)N1CCC[C@H](N1)C(=O)OCC(C)(C)C2 [Example A208] | > 10000 nM | 100 to 1000 nM | > 10000 nM | 1000 to 10000 nM | > 1000 | > 10000 nM | < 5000 | > 10000 nM | > 10000 nM | > 10000 nM |  | 23 | 4 | 13 | 7480
C=CC(=O)N1CC[C@](C#N)(C(=O)N(C)[C@H](C(=O)N[C@H]2Cc3cccc(c3)-c3ccc4c(c3)c(c(-c3cccnc3[C@H](C)OC)n4CC)CC(C)(C)COC(=O)[C@@H]3CCCN(N3)C2=O)C(C)C)C1 (atropisomer, axis not shown) [Example A443] | 100 to 1000 nM | 10 to 100 nM | 1000 to 10000 nM | 10 to 100 nM | < 10 | 100 to 1000 nM | < 5000 | 1000 to 10000 nM | 1000 to 10000 nM | 100 to 1000 nM |  |  |  |  | 
CC#CC(=O)N1CC[C@H](C(=O)N(C)[C@H](C(=O)N[C@H]2Cc3nc(ns3)-c3ccc4c(c3)c(c(-c3cccnc3[C@H](C)OC)n4CC)CC(C)(C)COC(=O)[C@@H]3CCCN(N3)C2=O)C(C)C)C1 (atropisomer, axis not shown) [Example A289] | 1000 to 10000 nM | 1000 to 10000 nM | > 10000 nM | 1000 to 10000 nM | 100 to 1000 | > 10000 nM | < 5000 | > 10000 nM | > 10000 nM | 1000 to 10000 nM |  |  |  |  | 
CC#CC(=O)N1CC[C@H](C(=O)N(C)[C@H](C(=O)N[C@H]2Cc3cccc(c3)-c3ccc4c(c3)c(c(-c3cccnc3[C@H](C)OC)n4CC)CC(C)(C)COC(=O)[C@@H]3CCCN(N3)C2=O)C2CCCC2)C1 (atropisomer, axis not shown) [Example A310] | 1000 to 10000 nM | 100 to 1000 nM | > 10000 nM | 100 to 1000 nM | 10 to 100 | 1000 to 10000 nM | < 5000 | 1000 to 10000 nM | > 10000 nM | 1000 to 10000 nM |  |  |  |  | 
CCn1c(-c2cccnc2[C@H](C)OC)c2c3cc(ccc31)-c1cc(O)cc(c1)C[C@H](NC(=O)[C@H](C(C)C)N(C)C(=O)C1CN(C(=O)/C=C/CN(C)C)C1)C(=O)N1CCC[C@H](N1)C(=O)OCC(C)(C)C2 (atropisomer, axis not shown) [Example A257] | 100 to 1000 nM | < 10 nM | 100 to 1000 nM | < 10 nM | 10 to 100 | 100 to 1000 nM | < 5000 | 100 to 1000 nM | 100 to 1000 nM | 10 to 100 nM |  |  |  |  | 
CC#CC(=O)N1CC[C@@H](C(=O)N(C)[C@H](C(=O)N[C@H]2Cc3cc(O)cc(c3)-c3ccc4c(c3)c(c(-c3cncnc3)n4CC)CC(C)(C)COC(=O)[C@@H]3CCCN(N3)C2=O)C(C)C)C1 [Example A169] | 1000 to 10000 nM | 100 to 1000 nM | > 10000 nM | 100 to 1000 nM | 100 to 1000 | 1000 to 10000 nM | < 5000 | 1000 to 10000 nM | > 10000 nM | 1000 to 10000 nM |  |  |  |  | 
